# Laboratory results taken from patent US20230322779A1 (priority 2020, published 2023).
# pIC50: −log10 of the molar value. Read-outs that look alike come from different tables or passages of the source.
# Columns and labels:
# SARS-CoV-2 B.1.1.7 = experiment: SARS-CoV-2 in primary human bronchial cells at air liquid interface (HAEC-ALI), vRNA of apical wash by RT-qPCR; format: cell-based
# [1] = test system: SARS-CoV-2 (βCoV/KOR/KCDC03/2020); experiment: Dose-response curve analysis by immunofluorescence, anti-SARS-CoV-2 activity in Calu-3 cells; format: cell-based
# [2] = test system: SARS-CoV-2 nLUC reporter virus; experiment: microbe, parasite or virus in culture; format: cell-based; conditions: for antiviral activity against SARS-CoV-2 reporter virus in A549-hACE2 cells: 10 to 0.002 μM
# in vitro = conditions: human, A549-hACE2 cells, uninfected
# Calu-3 cells = experiment: Cell viability by nucleus counting in the Calu-3 dose-response assay; conditions: 0.0025 to 50 μM
# [3] = Severe acute respiratory syndrome coronavirus 2, 48 h
Compound,"inhibition of vRNA in apical wash fluid (SARS-CoV-2 B.1.1.7; 3 μM, all timepoints (day 2-11), HAEC-ALI)",antiviral activity against SARS-CoV-2 in Calu-3 cells [1],antiviral activity against SARS-CoV-2 reporter virus in A549-hACE2 cells [2],"pIC50 [2, 3]",CC50 at 48 h (in vitro) [nM],toxicity in Calu-3 cells (Calu-3 cells),pIC50 [2],"inhibition of vRNA in apical wash fluid (SARS-CoV-2 B.1.1.7; 0.37 μM and lower, HAEC-ALI)","inhibition of vRNA in apical wash fluid (SARS-CoV-2 B.1.1.7; 1.1 μM, day 9, HAEC-ALI)","inhibition of vRNA in apical wash fluid (SARS-CoV-2 B.1.1.7; 3 μM, day 4-11, HAEC-ALI)","inhibition of vRNA in apical wash fluid (SARS-CoV-2 B.1.1.7; 10 μM, all timepoints (day 2-11), HAEC-ALI)","antiviral against SARS-CoV-2 (overall, HAEC-ALI) (SARS-CoV-2 B.1.1.7; primary human bronchial cells, air liquid interface)"
"N#C[C@@]1(c2ccc3c(N)ncnn23)O[C@H](CO)[C@@H](O)[C@H]1O [GS-441524, reference compound]",statistically significant inhibition,,,,,,,,,,,
"FC(F)(F)c1nc(C(F)(F)F)c2ccc3nc(-c4nnco4)cn3c2n1 [Example 9, 2-(2,4-bis(trifluoromethyl)imidazo[1′2′:1,6]pyrido[2,3-d]pyrimidin-8-yl)-1,3,4-oxadiazole]",,activity in the μM range,has antiviral activity against SARS-CoV-2 reporter virus when used in the μM range,< 6.00,> 10000,Neither compound showed toxicity,,,,,,
"FC(F)(F)c1cc(C(F)(F)F)c2ccc3nc(-c4nnco4)cn3c2n1 [Example 1, 2-[2,4-bis(trifluoromethyl)imidazo[1,2-a]1,8-naphthyridin-8-yl]-1,3,4-oxadiazole]",,activity in the μM range,has antiviral activity against SARS-CoV-2 reporter virus when used in the μM range,< 6.00,> 10000,Neither compound showed toxicity,5.77,No inhibition was observed,statistically significant inhibition,statistically significant inhibition,statistically significant inhibition,antiviral against SARS-CoV-2 when used in the μM range
